Entries after “also recorded” stand apart in the source; their conditions may differ.
Columns and labels:
[1] = test system: neuroprotective capabilities; experiment: Neuroprotective capabilities in vitro (general statement); type: cell-based
[2] = test system: Neuronal/Glial Cortical Cultures; experiment: Hypoxia-induced lactate dehydrogenase release (cell injury) in neuronal/glial cortical cultures; type: cell-based, rat (Sprague Dawley); settings: Rattus norvegicus, read-out: % Inh (percent inhibition of the release of lactate dehydrogenase in comparison to hypoxic control cultures)
Description: An assay was conducted to compare the inhibitory action of various compounds which are the subject of the present invention. The assay measured the oxygen deprivation-induced neuronal cell death from various cortical cultures. Lactate dehydrogenase (LDH) is a cytosolic enzyme that is only present in the extracellular medium if cell membranes rupture, indicating cell death. Therefore, LDH release into the culture medium is a convenient assay of cell death. The results of Table 3 indicate that each of the compounds tested decreased neuronal cell death from hypoxia in vitro.
The uteri of Sprague Dawley rats in their 18th day of fetal gestation were removed under halothane anesthesia and placed in a chilled bath of magnesium and calcium-free Hank's balanced salt solution (HBSS). Cortical brain hemispheres were removed from individual fetuses and digested in 0.1% trypsin in HBSS for 15 minutes at room temperature. Digested tissue was washed three times with HBSS then dissociated into a single cell suspension by trituration with a glass pipette. […] One hundred microliters of this cell suspension was pipetted into individual wells of 96-well tissue culture plates previously coated with poly-L-lysine, then stored in a humidified incubator (37° C., 3% CO2). Glial cell growth was stopped by the addition of 100 μL of 45% DME, 45% HAM F12, and 10% Horse serum (10/0 DME/F12) containing 15 μg/mL of 5-fluoro-2-deoxyuridine and 35 μg/mL of uridine, 3 days after the initial plating. Cultures were fed at 2- or 3-day intervals thereafter by replacing 100 μL of spent medium with an identical volume of fresh 10/0 DME/F12.
Sixteen-day-old cultures were prepared for experiments by removing growth medium from each culture well and rinsing once with 250 μL of Mg^++ -free HBSS containing 1.8 mM Ca^++ and 1 g/L D-glucose (0 Mg-HBSS) Control and test agent solutions, prepared using 0 Mg-HBSS medium, were dispensed in 50 μL aliquots into individual test wells (Total volume/well=50 μL). All liquid medium preparations to this point were equilibrated with […], 5% CO2. Plates were placed into a 37° C., humidified, triple-gas incubator with O2 and CO2 levels maintained at 1% and 10%, respectively. Plates were removed after 7.5 hours of oxygen deprivation and restored to normoxic conditions (20% O2 /10% CO2, 37° C.) following a 50 μL addition to each well of appropriate control or test agent solutions containing 1.8 mM Ca^++, 1.6 mM Mg^++, and 7.0 g/L D-glucose. Final medium concentrations of 1.8 mM Ca^++, 0.8 mM Mg^++, and 4 g/L D-glucose were present during the reoxygenation period.
Medium concentrations of lactate dehydrogenase (LDH), a cytosolic enzyme normally retained by cells but released upon cell death, were determined for each well following an additional 16.5-hour normoxic exposure period. Individual 25 μL medium specimens were collected from each well and placed into wells of a clean 96-well microtiter plate containing 225 μL of 0.1 M KPO4 buffer (pH=7.5 at 25° C.) and 30 μg NADH (reduced […] adenine dinucleotide). After 10-minute incubation at 37° C., 30 μL of 2.4 mM sodium pyruvate was added to each well and plates were gently shaken to mix solution. Plates were immediately placed into a Multiscan MCC/340 plate reader and scanned for […] (excitation at 340 nm) for 1 minute at 5-second intervals. A kinetic analysis of the change in medium absorbance resulting from shifts in NADH concentrations was used, in combination with factors to correct for temperature, light path, and volume adjustments to determine medium LDH concentrations (IU/mL). Normoxic control baseline LDH levels were subtracted from both hypoxic control and test agent values prior to determining test agent effectiveness in preventing oxygen deprivation-induced injury.

[3] = test system: voltage-dependent sodium channels; settings: cited from earlier work
Hippocampal Slices [4] = experiment: Recovery of synaptic activity (EPSP) in hippocampal slices after hypoxia-hypoglycemia (Example 4); type: cell-based, rat (male Wistar)
Description: Young male Wistar rats (150 to 250 g) were anesthetized with ketamine (200 mg/kg IP) and ether and were perfused transcardially with cold, oxygenated, low sodium-containing physiological buffer solution (252 mM sucrose, 3.5 mM KCl, 1.0 mM MgSO4, 20 mM CaC1, 26 mM NaHCO3, 1.25 mM NaH2 PO4, and 10 mM glucose) with 50 μM ketamine added. Brains were removed and hippocampi carefully excised. Hippocampi were sliced transversely at 450 μm and transferred into cold (4° C.) low-sodium buffer solution gassed with 95% O2, 5% CO2 at 31° C. After 45 minutes slices were transferred to oxygenated normal physiological solution (126 mM NaCl, 3.5 mM KCl, 1.0 mM MgSO4, 2.0 mM CaCl2, 20 mM NaHCO3, 1.25 mM NaH2 PO4, and 10 mM glucose) at 31° C. for at least 1 hour before experiments began. After preincubation, slices were transferred to a heated (36° C.), gassed incubation chamber where they were continuously superfused with gassed normal physiological solution. Evoked extracellular synaptic potentials (EPSPs) were obtained using glass micropipettes placed approximately 100 μm into the slice. Electrical stimulation was applied once per minute to the stratum radiatum by insulated paired nichrome wires (60 μm diameter). Stimuli consisted of 150 μA pulses lasting 0.4 msec. […] Data from a slice were used only if EPSP amplitude was greater than 2.0 mV before hypoxia-hypoglycemia.
(§1) Evoked potentials were recorded and analyzed with a digital computer interface. Experiments were started by recording for several minutes under normal conditions (95% O2, 5% CO2, 10 mM glucose). Then drug was added to the superfusion solution (or normal solution was continued in control experiments). After 10 minutes of drug superfusion, hypoxia-hypoglycemia was induced by switching to superfusion solution containing added drug with low glucose (2 mM) that was equilibrated with 95% N2 and 5% CO2. At the same time the slice chamber gas was switched to 95% N2 and 5% CO2. Hypoxia-hypoglycemia was continued for 12 minutes. After 12 minutes, 95% O2 and 10 mM glucose were returned to the slices and the superfusing solution. Following 15 minutes of reoxygenation, the experiment was ended. EPSPs were considered recovered if they returned to at least half of their original amplitude. The percentage of slices with recovered EPSPs were calculated for each condition.
This study was identical in design to Example 3 except that during the hypoxic period of 12 minutes, glucose was reduced from 10 mM to 2 mM rather than from 10 mM to zero as in Example 3.

cytokinin activity = settings: cited from earlier work
Hippocampal Slices [5] = experiment: Effect on synaptic potentials / presynaptic action potential in slices before hypoxia; type: cell-based, rat (male Wistar); settings: concentrations used, before hypoxia
Description: Young male Wistar rats (150 to 250 g) were anesthetized with ketamine (200 mg/kg IP) and ether and were perfused transcardially with cold, oxygenated, low sodium-containing physiological buffer solution (252 mM sucrose, 3.5 mM KCl, 1.0 mM MgSO4, 20 mM CaC1, 26 mM NaHCO3, 1.25 mM NaH2 PO4, and 10 mM glucose) with 50 μM ketamine added. Brains were removed and hippocampi carefully excised. Hippocampi were sliced transversely at 450 μm and transferred into cold (4° C.) low-sodium buffer solution gassed with 95% O2, 5% CO2 at 31° C. After 45 minutes slices were transferred to oxygenated normal physiological solution (126 mM NaCl, 3.5 mM KCl, 1.0 mM MgSO4, 2.0 mM CaCl2, 20 mM NaHCO3, 1.25 mM NaH2 PO4, and 10 mM glucose) at 31° C. for at least 1 hour before experiments began. After preincubation, slices were transferred to a heated (36° C.), gassed incubation chamber where they were continuously superfused with gassed normal physiological solution. Evoked extracellular synaptic potentials (EPSPs) were obtained using glass micropipettes placed approximately 100 μm into the slice. […]
Evoked potentials were recorded and analyzed with a digital computer interface. […] The percentage of slices with recovered EPSPs were calculated for each condition.
Excitatory synaptic potential (EPSP) amplitude was measured before and during drug treatment in the 10-minute period preceding reduced oxygen and glucose. […]

Hippocampal Slices [6] = experiment: Recovery of synaptic activity (EPSP) in hippocampal slices after hypoxia-hypoglycemia (Example 3); type: cell-based, rat (male Wistar); settings: for percentage of slices that recovered EPSPs: control approximately 5%
Description: An in vitro model with rat hippocampal brain slices exposed to hypoxia-hypoglycemia was used to simulate ischemia. Neuroprotection was measured by the recovery of excitatory postsynaptic potentials after reoxygenation.
Young male Wistar rats (150 to 250 g) were anesthetized with ketamine (200 mg/kg IP) and ether and were perfused transcardially with cold, oxygenated, low sodium-containing physiological buffer solution (252 mM sucrose, 3.5 mM KCl, 1.0 mM MgSO4, 20 mM CaC1, 26 mM NaHCO3, 1.25 mM NaH2 PO4, and 10 mM glucose) with 50 μM ketamine added. Brains were removed and hippocampi carefully excised. Hippocampi were sliced transversely at 450 μm and transferred into cold (4° C.) low-sodium buffer solution gassed with 95% O2, 5% CO2 at 31° C. After 45 minutes slices were transferred to oxygenated normal physiological solution (126 mM NaCl, 3.5 mM KCl, 1.0 mM MgSO4, 2.0 mM CaCl2, 20 mM NaHCO3, 1.25 mM NaH2 PO4, and 10 mM glucose) at 31° C. for at least 1 hour before experiments began. After preincubation, slices were transferred to a heated (36° C.), gassed incubation chamber where they were continuously superfused with gassed normal physiological solution. Evoked extracellular synaptic potentials (EPSPs) were obtained using glass micropipettes placed approximately 100 μm into the slice. Electrical stimulation was applied once per minute to the stratum radiatum by insulated paired nichrome wires (60 μm diameter). Stimuli consisted of 150 μA pulses lasting 0.4 msec. The 150 μA stimulus usually gave nearly a maximal EPSP (excitatory postsynaptic potential) amplitude. Data from a slice were used only if EPSP amplitude was greater than 2.0 mV before hypoxia-hypoglycemia.
as §1

Cc1cccc(Cl)c1NC(=O)/C=C1\SCC(=O)N1C [ralitoline]
neuroprotective capabilities [1]: shown in vitro to have neuroprotective capabilities

O=C(Nc1ccncc1)Nc1c(Cl)cccc1Cl [N-(2,6-Dichlorophenyl)-N'-4-pyridinyl urea]
inhibition at 30 µM [2]: 62%
inhibition at 100 µM [2]: 88%

NC(=O)N1c2ccccc2C=Cc2ccccc21 [Carbamazepine, carbamazepine]
action on voltage-dependent sodium channels [3]: more selective for sodium channels
Number Slices Recovered / Number Slices Tested (≥50% EPSP amplitude recovery after reoxygenation) (Hippocampal Slices [4]; 20 μM): 2/9
Number Slices Recovered / Number Slices Tested (≥50% EPSP amplitude recovery after reoxygenation) (Hippocampal Slices [4]; 50 μM): 4/10
inhibition at 30 µM [2]: 53%
inhibition at 100 µM [2]: 95%
neuroprotective capabilities [1]: shown in vitro to have neuroprotective capabilities

O=C(Nc1ccncc1)Nc1ccc(Cl)c(Cl)c1 [N-(3,4-dichlorophenyl)-N'-4-pyridinyl urea]
cytokinin activity (cytokinin activity): show such activity

Cc1cccc(C)c1NC(=O)Nc1ccncc1 [N-(2,6-dimethylphenyl)-N'-4-pyridinyl urea]
inhibition at 30 µM [2]: 106%
inhibition at 100 µM [2]: 81%

Cc1cccc(Cl)c1NC(=O)Nc1ccncc1 [N-(2-chloro-6-methylphenyl)-N'-4-pyridinyl urea]
action on voltage-dependent sodium channels [3]: modulates voltage-dependent sodium channels of nerve cell membranes; also recorded: modulator of neuronal voltage-gated sodium ion channels
effect on EPSP / presynaptic action potential amplitude (Hippocampal Slices [5]): none of the concentrations tested reduced EPSP or presynaptic action potential amplitude
Number Slices Recovered / Number Slices Tested (≥50% EPSP amplitude recovery after reoxygenation) (Hippocampal Slices [6]; 0.5 μM): 0/8
changes from hypoxia (Hippocampal Slices [6]; 0.5 μM): not different from control treatments
Number Slices Recovered / Number Slices Tested (≥50% EPSP amplitude recovery after reoxygenation) (Hippocampal Slices [6]; 2 μM): 3/8
mean EPSP amplitude after hypoxia (Hippocampal Slices [6]; 2 μM): near significance
protection / improved recovery of EPSPs (Hippocampal Slices [6]; 2 μM and 20 μM): significant protection of hippocampal slices from irreversible loss of synaptic potentials; also recorded: improves recovery of EPSPs
percentage of slices that recovered EPSPs (Hippocampal Slices [6]; 2 μM): 37%
Number Slices Recovered / Number Slices Tested (≥50% EPSP amplitude recovery after reoxygenation) (Hippocampal Slices [6]; 20 μM): 9 out of 10
mean EPSP amplitude after hypoxia (Hippocampal Slices [6]; 20 μM): significant with a high degree of confidence; also recorded: almost complete recovery of EPSPs
protection from loss of EPSPs (Hippocampal Slices [6]; 20 μM): almost complete protection from loss of EPSPs
percentage of slices that recovered EPSPs (Hippocampal Slices [6]; 20 μM): 90%
Number Slices Recovered / Number Slices Tested (≥50% EPSP amplitude recovery after reoxygenation) (Hippocampal Slices [6]; 20 μM, listed as Test drug): 9/10
mean EPSP amplitude after hypoxia, overall effect (Hippocampal Slices [6]; concentration-related, 0.5-20 μM): significantly increased the mean EPSP amplitude after hypoxia; also recorded: increased EPSP amplitude following hypoxia in a concentration-dependent manner
inhibition at 30 µM [2]: 101%
inhibition at 100 µM [2]: 80%

O=C(Nc1cccnc1)Nc1ccc(Cl)c(Cl)c1 [N-(3,4-dichlorophenyl)-N'-3-pyridinyl urea]
cytokinin activity (cytokinin activity): show such activity

COCCOC(=O)C1=C(C)NC(C)=C(C(=O)OC(C)C)C1c1cccc([N+](=O)[O-])c1 (centres unmarked) [Nimodipine, nimodipine]
concentration at which it interacts with sodium channels [3]: greater than 10 μM
prevention of ischemic damage / loss of EPSPs (Hippocampal Slices [4]; 1 μM): failed to prevent loss of EPSPs
Number Slices Recovered / Number Slices Tested (≥50% EPSP amplitude recovery after reoxygenation) (Hippocampal Slices [4]; 1.0 μM): 1/9

Nc1nnc(-c2cccc(Cl)c2Cl)c(N)n1 [Lamotrigine, lamotrigine]
inhibition at 30 µM [2]: 68%
inhibition at 100 µM [2]: 83%
neuroprotective capabilities [1]: shown in vitro to have neuroprotective capabilities

Source: patent publication US6133299A, “Methods for treating neurodegenerative diseases and disorders using N-(2,6-disubstituted aromatic)-N'-pyridinyl ureas and other anticonvulsant compounds” (Warner-Lambert Company, priority 1993, dated 2000)
